The source of these data is publication PMC5584254, “Identification of novel small molecule Beclin 1 mimetics activating autophagy” (Oncotarget, 2017).

The target in experiment [1] is T1, Bcl-xL-Beclin 1 20-mer complex (Homo sapiens, UniProt Q07817).
T1 construct: made in house
The experiment is described as follows: FP competitive binding assay (disruption of Bcl-xL-20-mer complex). As to conditions: 2.5 μM Bcl-xL protein, 400 nM fluorescein-labeled 20-mer. The procedure: Figure 1 FP-based HTS for Beclin 1 mimetics (A) Schematic presentation of the Beclin 1 protein and sequences of five synthetic peptides modified from Beclin 1 BH3 peptide. Diagram of human Beclin 1 protein with different domains is shown in the bottom. BH3 domain is necessary and sufficient for interaction with Bcl-2/Bcl-xL. Amino acids in red are the critical residues for the binding. (B) Five fluorescein-labeled Beclin 1 BH3 peptides were tested for their binding ability to Bcl-xL protein in FP assay. Fluorescein-labeled Bak BH3 peptide was used as a positive control. Bcl-xL protein was titrated to a solution of 50 nM peptides. (C) Competitive binding assay with positive controls, ABT-263 and (–)-gossypol ((–)G). […] (D–E) HTS was performed with ~50000 compounds from Prestwick, Microsource, CMLD and Chembridge libraries. The four libraries were divided into two groups and screened separately. Compounds activity (percent of inhibition) of first screen (D) and second screen (E) were shown with Z′ value indicated on top. Plate median + 3SD was used as a threshold to determine the initial hits.
Bcl-xL protein was immobilized on the sensor chip with 10000 RU.
All N′-fluorescein-labeled peptides were purchased from Kansas State University (Manhattan, KS). […] 16mer Bak ([…]) sequence was from published literature. Bcl-xL protein (25 kDa, > 90% pure based on SDS–PAGE) was expressed and purified in Protein Product Group, University of Kansas. FP assays were carried out as described in our previous publication with some modified. […] Then, fluorescein-labeled peptide was added to each well with a final concentration of 50 nM and incubated at room temperature for 30 min. Anisotropy measurements were taken at room temperature using a BioTek Synergy H4 plate reader (Biotek, Winooski, VT) following the protocol recommended by the manufacture. The Kd was estimated by nonlinear regression to a one-site binding model using GraphPad Prism 5.0 (GraphPad, San Diego, CA). […] Compound solvent DMSO only was used as a negative control in the competition assay. After 2 h incubation, the plate was read and polarization was calculated.

The target of experiment [2] is T2, Bcl-xL-Beclin 1 complex (Homo sapiens, UniProt Q07817).
T2 construct: made in house
The experiment is described as follows: FP-based high-throughput screening, primary screen. In kind it is binding. As to conditions: first screen; 40 μM compound, 2.5 μM Bcl-xL, 400 nM 20-mer. The text has this: Next, we optimized the FP competitive binding assay in a 384-well microplate format and carried out a small-scale HTS using a small library, which contains 6580 compounds from Prestwick, Microsource and our in-house CMLD library. Then, the FP assay was optimized and applied in screening the larger Chembridge library consisting of 43736 compounds. HTS cascades are shown in Supplementary Figure 1A–1B. […] All chemical structures can be found on the PubChem website (http://pubchem.ncbi.nlm.nih.gov/).
Then the plates were read by Envision (Perkin Elmer, Waltham, MA). […] The hits were selected from library stocks and reconfirmed in a concentration response FP assay (6 doses ranging from 5 μM to 160 μM or 8 doses ranging from 0.5 μM to 60 μM).

Structures can show the parent of a compound that is named as a salt.

T2 sequence (Q07817 whole entry, one chain of several): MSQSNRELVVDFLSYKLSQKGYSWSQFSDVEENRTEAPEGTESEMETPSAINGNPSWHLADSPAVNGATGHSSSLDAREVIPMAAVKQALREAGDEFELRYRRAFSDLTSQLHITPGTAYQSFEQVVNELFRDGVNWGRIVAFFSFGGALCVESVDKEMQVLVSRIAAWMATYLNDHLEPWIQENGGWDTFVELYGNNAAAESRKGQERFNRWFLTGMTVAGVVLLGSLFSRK
T1 sequence (Q07817 whole entry, one chain of several): as above

Turning to `Nc1ccc2cc3ccc(N)cc3nc2c1` [Compound A13, PROFLAVINE HEMISULFATE], in experiment [1], the half-inhibitory concentration (IC50) is 4.84 µM and the inhibitory constant (Ki) stood at 0.84 µM. Further, in experiment [2], the “Primary Screen mP” value was -3.2 mP and the inhibition at 40 µM was 102%.

For the compound `CCOc1ccc2nc3cc(N)ccc3c(N)c2c1` [Compound A15, ETHACRIDINE LACTATE], in experiment [1], the IC50 was found to be 102 µM and the Ki was found to be 28 µM. In addition, in experiment [2], the “Primary Screen mP” value is 83.5 mP and the inhibition at 40 µM stood at 37.9%.

On to `CCN(CC)CCCC(C)Nc1c2ccc(Cl)cc2nc2ccc(OC)cc12` (stereo not drawn) [Compound A21, QUINACRINE HYDROCHLORIDE], for which, in experiment [1], the half-inhibitory concentration (IC50) was found to be 48.7 µM and the Ki amounted to 13.2 µM. Further, in experiment [2], the “Primary Screen mP” value is recorded as 72.2 mP and the inhibition at 40 µM amounted to 48.2%.
